“Also recorded” adds a separate entry of the source. Counter-ions that a name gives are not always drawn. Blank lines part the entries; values can stand above or below the molecule they belong to.
Key:
EGFR [1] = target: T1, EGFR (Homo sapiens, UniProt P00533); assay: ELISA, blocking of cetuximab binding to EGFR; conditions: for blocking of cetuximab binding to EGFR (in words): ELISA
EGFR [2] = target: T1, EGFR; assay: blocking of panitumumab (vectibix) binding to EGFR; conditions: FIG. 3
A431 cells [3] = assay: annexin-V/PI flow cytometry, panitumumab induced death in A431 cells; assay type: cell-based; conditions: 72 hours
Method: Apoptosis and cell death were evaluated by annexin-V and propidium-iodide (PI) labeling, followed by flow cytometry. The experiments show improved cell viability of A431 cells treated with G-4 and E-3 compounds with panitumumab as compared to panitumumab alone. A) flow cytometry of one representative experiment showing elevation of percentage of live cells from 18% live cells after panitumumab alone verses 40% live cells with panitumumab and G-4 compound and 42% live cells with E-3 compound and panitumumab treatment. B) bar graph depicting percent live A431 cells with the different treatment conditions.

[4] = test system: phosphorylated EGFR receptor; assay: p-EGFR level by flow cytometry, A431 cells treated with EGF and cetuximab; assay type: cell-based; conditions: for effect on p-EGFR expression (in words): A431 cells treated with cetuximab, 5 uM compound; for activated levels of p-EGFR: A431 cells, 20 minutes, EGF, cetuximab and 5 uM compound
Method: (§1) The level of phosphorylated EGFR receptor was measured in cell lines by flow cytometry.

[5] = test system: phosphorylated EGFR receptor; assay: p-EGFR level by flow cytometry, HaCaT cells treated with EGF and cetuximab; assay type: cell-based, human; conditions: for effect on p-EGFR expression (in words): HaCaT cells treated with cetuximab, 5 uM compound
Method: (§2) The novel approach proposed by the invention is to specifically target and block the effect of the anti-neoplastic biological targeted agents in the skin.
as §1

[6] = target: recombinant human EGFR (rhEGFR) (Homo sapiens, UniProt P00533); assay: ELISA, inhibition of bispecific EGFRi antibody binding to rhEGFR
Method: (§3) The efficacity of SDT-011 efficacy in preventing bispecific EGFRi binding to recombinant human EGFR (rhEGFR) was evaluated. ELISA was used to assess binding inhibition, while MTT assays in HaCaT and A431 cell lines measured the reversal of EGFR inhibition on keratinocyte cell line proliferation, and flow cytometry quantified EGFR expression on the cell surface. Additionally, in silico docking experiments provided insights into SDT-011's mechanism of action in blocking amivantamab, petosemtamab, and izalontamab.

EGFR [7] = target: T1, EGFR; assay: flow cytometry of EGFR expression on the cell surface with bispecific EGFRi; assay type: cell-based
Method: as §3

[8] = test system: HaCaT and A431 cell lines; assay: MTT proliferation assay with bispecific EGFRi; assay type: cell-based; conditions: keratinocyte cell lines
Method: as §3

keratinocytes = assay: percent live keratinocytes after adding sn molecules to erlotinib and gefitinib; assay type: cell-based; conditions: added to erlotinib and gefitinib, FIG. 9B
HaCaT keratinocytes = assay: percent survival of HaCaT keratinocytes with trametinib plus sn8; assay type: cell-based, human; conditions: added to trametinib, FIG. 9B
HaCaT cells [9] = assay: annexin-V/PI flow cytometry, erlotinib induced death in HaCaT cells; assay type: cell-based, human; conditions: erlotinib alone, 72 hours
Method: To test if ATP analogues can protect keratinocyte from erlotinib induced death we treated HaCaT cells with erlotinib alone and with erlotinib+5 uM ATP analogue for 72 hours. Apoptosis and cell death were evaluated by annexin-V and propidium-iodide (PI) labeling, followed by flow cytometry. […] B) bar graph depicting percent dead HaCaT cells with the different treatment conditions.

A431 cells [10] = assay: annexin-V/PI flow cytometry, cetuximab induced cell death in A431 cells; assay type: cell-based
Method: (§4) Apoptosis and cell death were evaluated by annexin-V and propidium-iodide (PI) labeling, followed by flow cytometry.

HaCaT cells [11] = assay: annexin-V/PI flow cytometry, cetuximab induced cell death in HaCaT cells; assay type: cell-based, human
Method: as §2, §4

[12] = Franz chamber skin penetration; assay type: in vitro ADME, human; conditions: FIG. 12
Excerpt: The inventors designed and fabricated solidified polymer micelles composed of linear […] (PEG-PLA) of ˜20 nm, which was previously shown to have stability and ability to penetrate cells efficiently.

[13] = panitumumab + compound (0.5 uM and 5 uM)
[14] = G-4 added to cetuximab treatment, 72 hours, one representative experiment
[15] = cetuximab + 0.5 uM and 5 uM G-4, 72 hours

Molecule: Cc1cc(Cl)cc(N)c1N [E3, (2-amino-4-chloro-6-methylphenyl)amine hydrochloride]
blocking of cetuximab binding to EGFR (in words) (EGFR [1]; hydrochloride): blocking of cetuximab binding to EGFR; also recorded: dose-dependent manner
blocking of panitumumab (vectibix) binding to EGFR (in words) (EGFR [2]): block the binding
live cells (A431 cells [3]; [13]): 42%

inhibition of amivantamab binding to EGFR (in words) ([6]; FIG. 17 panel A): effectively inhibited the binding
inhibition of petosemtamab binding to EGFR (in words) ([6]; FIG. 17 panel B): effectively inhibited the binding
inhibition of izalontamab binding to EGFR (in words) ([6]; FIG. 17 panel C): effectively inhibited the binding
total EGFR (tEGFR) expression / receptor internalization by amivantamab (in words) (EGFR [7]; FIG. 18 panel A): stabilizes total EGFR (tEGFR) expression
total EGFR (tEGFR) expression / receptor internalization by petosemtamab (in words) (EGFR [7]; FIG. 18 panel B): stabilizes total EGFR (tEGFR) expression
total EGFR (tEGFR) expression / receptor internalization by izalontamab (in words) (EGFR [7]; FIG. 18 panel C): stabilizes total EGFR (tEGFR) expression
Molecule: Cc1ccc(-c2cc(C(F)(F)F)c3c(N)c(C#N)sc3n2)cc1 [LW11]
blocking of cetuximab binding to EGFR (in words) (EGFR [1]): dose-dependent manner; also recorded: block cetuximab's binding to EGFR
effect on p-EGFR expression (in words) [4]: increase p-EGFR expression
activated levels of p-EGFR [4]: ~30%
effect on p-EGFR expression (in words) [5]: increase p-EGFR expression
activated levels of p-EGFR ([5]; HaCaT cells, 20 minutes, EGF, cetuximab and 5 uM compound): up to 46%
antiproliferative effects induced by amivantamab (in words) ([8]; FIG. 18 panel D): reversal of the antiproliferative effects
antiproliferative effects induced by petosemtamab (in words) ([8]; FIG. 18 panel E): reversal of the antiproliferative effects
antiproliferative effects induced by izalontamab (in words) ([8]; FIG. 18 panel F): reversal of the antiproliferative effects

Molecule: Nc1ccc(OCc2ccccn2)c(Cl)c1 [sn8]
percent live keratinocytes (in words) (keratinocytes): improved percent live keratinocytes
percent survival of HaCaT keratinocytes (in words) (HaCaT keratinocytes): improved percent survival of HaCaT keratinocytes

Molecule: C#Cc1cccc(Nc2ncnc3cc(OCCOC)c(OCCOC)cc23)c1 [erlotinib]
dead cells (HaCaT cells [9]): 13.5%

Molecule: panitumumab: human monoclonal antibody specific to the epidermal growth factor receptor [reference compound]
live cells (A431 cells [3]; panitumumab alone): 18%

blocking of binding of cetuximab to EGFR (EGFR [1]; screening plate, FIG. 2A): 42%
blocking of panitumumab (vectibix) binding to EGFR (in words) (EGFR [2]): block the binding
penetration through full human skin (in words) [12]: does not penetrate full human skin
Molecule: CC(=O)c1sc2nc(-c3cccnc3)cc(C(F)F)c2c1N [G4, 1-[3-amino-4-(difluoromethyl)-6-(3-pyridinyl)thieno[2,3-b]pyridin-2-yl]ethanone]
blocking of cetuximab binding to EGFR (in words) (EGFR [1]): blocking of cetuximab binding to EGFR; also recorded: dose-dependent manner; also recorded: block cetuximab's binding to EGFR
effect on p-EGFR expression (in words) [4]: increase p-EGFR expression
activated levels of p-EGFR [4]: ~30%
effect on p-EGFR expression (in words) [5]: increase p-EGFR expression
live cells (A431 cells [10]; [14]): 54.5%
average improvement of viability against cetuximab induced cell death (A431 cells [10]; [15]): more than 50%
live cells (HaCaT cells [11]; [14]): 64%
average improvement of viability against cetuximab induced cell death (HaCaT cells [11]; [15]): 30%
live cells (A431 cells [3]; [13]): 40%

Molecule: O=C(CN1C(=O)c2ccccc2C1=O)Nc1cccc(Cl)c1 [sn9]
percent live keratinocytes (in words) (keratinocytes): improved percent live keratinocytes

Molecule: N#Cc1cc(N)ccc1F [sn6]
percent live keratinocytes (in words) (keratinocytes): improved percent live keratinocytes

Molecule: CC(=O)Nc1ccc(F)c(Cl)c1 [sn7]
percent live keratinocytes (in words) (keratinocytes): improved percent live keratinocytes
